The supplement of paper PMC10307832

Legend:
Assay in all cases: relative viability (nuclei count vs DMSO), 5 days (fraction); higher = more cells survive
Carfilzomib + Trametinib = compound: CC(C)C[C@H](NC(=O)[C@H](CCc1ccccc1)NC(=O)CN1CCOCC1)C(=O)N[C@@H](Cc1ccccc1)C(=O)N[C@@H](CC(C)C)C(=O)[C@@]1(C)CO1 [Carfilzomib] + CC(=O)Nc1cccc(-n2c(=O)n(C3CC3)c(=O)c3c(Nc4ccc(I)cc4F)n(C)c(=O)c(C)c32)c1 [Trametinib] (partner 0.02 µM)
Procedure, shortened: (§1)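 A single step with final 0.05% Triton X-100, 1% formaldehyde and 1 ug/ml Hoechst fixed the cells and stained nuclei 5 days after treatment. Lung cancer cell lines in 1536-well plates had been treated by pin tool the day after seeding with one drug alone or a fixed anchor-drug dose plus five library-drug doses (not always all listed) in √10 steps, and nuclei were counted on 4× images. Relative viability is the ratio of nuclei in treated wells to nuclei in vehicle wells, taken as the median of duplicate plates.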

Carfilzomib + Lapatinib = compound: CC(C)C[C@H](NC(=O)[C@H](CCc1ccccc1)NC(=O)CN1CCOCC1)C(=O)N[C@@H](Cc1ccccc1)C(=O)N[C@@H](CC(C)C)C(=O)[C@@]1(C)CO1 [Carfilzomib] + CS(=O)(=O)CCNCc1ccc(-c2ccc3ncnc(Nc4ccc(OCc5cccc(F)c5)c(Cl)c4)c3c2)o1 [Lapatinib] (partner 2 µM)
Procedure, shortened: as §1

Olaparib + Palbociclib = compound: O=C(c1cc(Cc2n[nH]c(=O)c3ccccc23)ccc1F)N1CCN(C(=O)C2CC2)CC1 [Olaparib] + CC(=O)c1c(C)c2cnc(Nc3ccc(N4CCNCC4)cn3)nc2n(C2CCCC2)c1=O [Palbociclib] (partner 0.5 µM)
Procedure, shortened: as §1

Olaparib + Phenformin = compound: O=C(c1cc(Cc2n[nH]c(=O)c3ccccc23)ccc1F)N1CCN(C(=O)C2CC2)CC1 [Olaparib] + N=C(N)NC(=N)NCCc1ccccc1 [Phenformin] (partner 250 µM)
Procedure, shortened: as §1

| Cell Line | relative viability (Carfilzomib + Trametinib; first compound 0.001 µM) | relative viability (Carfilzomib + Trametinib; first compound 0.003162 µM) | relative viability (Carfilzomib + Trametinib; first compound 0.01 µM) | relative viability (Carfilzomib + Trametinib; first compound 0.03162 µM) | relative viability (Carfilzomib + Trametinib; first compound 0.1 µM) | relative viability (Carfilzomib + Lapatinib; first compound 0.001 µM) | relative viability (Carfilzomib + Lapatinib; first compound 0.003162 µM) | relative viability (Carfilzomib + Lapatinib; first compound 0.01 µM) | relative viability (Carfilzomib + Lapatinib; first compound 0.03162 µM) | relative viability (Carfilzomib + Lapatinib; first compound 0.1 µM) | relative viability (Olaparib + Palbociclib; first compound 0.08 µM) | relative viability (Olaparib + Palbociclib; first compound 0.253 µM) | relative viability (Olaparib + Palbociclib; first compound 2.53 µM) | relative viability (Olaparib + Palbociclib; first compound 8 µM) | relative viability (Olaparib + Phenformin; first compound 0.08 µM) | relative viability (Olaparib + Phenformin; first compound 0.253 µM) | relative viability (Olaparib + Phenformin; first compound 2.53 µM) | relative viability (Olaparib + Phenformin; first compound 8 µM) |
| --- | --- | --- | --- | --- | --- | --- | --- | --- | --- | --- | --- | --- | --- | --- | --- | --- | --- | --- |
| NCI-H1915 | 0.266 | 0.302 | 0.295 | 0.289 | 0.106 | 0.937 | 1.02 | 0.973 | 0.586 | 0.0673 | 0.529 | 0.469 | 0.405 | 0.294 | 0.393 | 0.347 | 0.344 | 0.288 |
| NCI-H1944 | 0.457 | 0.464 | 0.398 | 0.473 | 0.202 | 0.762 | 0.858 | 0.7 | 0.793 | 0.326 | 0.34 | 0.335 | 0.316 | 0.271 | 0.189 | 0.184 | 0.202 | 0.192 |
| NCI-H1975 | 0.267 | 0.312 | 0.33 | 0.102 | 0.101 | 0.76 | 0.911 | 0.389 | 0.116 | 0.135 | 0.593 | 0.607 | 0.569 | 0.502 | 0.437 | 0.385 | 0.414 | 0.408 |
| NCI-H1993 | 0.51 | 0.471 | 0.603 | 0.53 | 0.481 | 0.729 | 0.89 | 0.704 | 0.632 | 0.493 | 0.49 | 0.653 | 0.83 | 0.735 | 0.529 | 0.511 | 0.501 | 0.447 |
| NCI-H2009 | 0.232 | 0.312 | 0.287 | 0.295 | 0.119 | 1.02 | 1.37 | 0.828 | 0.0609 | 0.0756 | 0.233 | 0.205 | 0.194 | 0.17 | 0.557 | 0.49 | 0.438 | 0.386 |
| NCI-H2023 | 0.486 | 0.614 | 0.669 | 0.269 | 0.0795 | 0.734 | 0.979 | 0.925 | 0.302 | 0.0574 | 0.413 | 0.34 | 0.397 | 0.292 | 0.466 | 0.36 | 0.391 | 0.359 |
| NCI-H2085 | 0.498 | 0.503 | 0.478 | 0.35 | 0.223 | 0.663 | 0.843 | 0.714 | 0.444 | 0.252 | 0.559 | 0.453 | 0.477 | 0.459 | 0.837 | 0.69 | 0.682 | 0.625 |
| NCI-H2087 | 0.187 | 0.235 | 0.131 | 0.0842 | 0.0653 | 0.823 | 1.35 | 0.829 | 0.112 | 0.116 | 0.282 | 0.211 | 0.259 | 0.217 | 0.633 | 0.42 | 0.436 | 0.383 |
| NCI-H2126 | 0.516 | 0.61 | 0.58 | 0.563 | 0.447 | 0.75 | 0.798 | 0.784 | 0.765 | 0.513 | 0.374 | 0.364 | 0.343 | 0.35 | 0.615 | 0.549 | 0.506 | 0.588 |
| NCI-H2170 | 0.931 | 0.921 | 0.863 | 0.868 | 0.25 | 0.264 | 0.263 | 0.269 | 0.312 | 0.207 | 0.427 | 0.395 | 0.411 | 0.315 | 0.458 | 0.355 | 0.431 | 0.385 |
| NCI-H2228 | 0.235 | 0.584 | 0.697 | 0.103 | 0.109 | 1.28 | 1.23 | 0.752 | 0.104 | 0.161 | 0.792 | 0.667 | 0.731 | 0.452 | 0.333 | 0.276 | 0.287 | 0.345 |
| NCI-H2347 | 0.269 | 0.23 | 0.298 | 0.292 | 0.262 | 0.976 | 1.09 | 0.979 | 0.306 | 0.51 | 0.381 | 0.431 | 0.393 | 0.409 | 0.458 | 0.339 | 0.313 | 0.347 |
| NCI-H2405 | 0.758 | 0.748 | 0.686 | 0.536 | 0.236 | – | 1.42 | 1.05 | 0.645 | 0.152 | 0.577 | 0.497 | 0.491 | 0.496 | 0.432 | 0.373 | 0.388 | 0.426 |
| NCI-H3122 | 0.196 | 0.234 | 0.255 | 0.244 | 0.239 | 1.03 | 0.942 | 1.09 | 0.978 | 0.806 | 0.206 | 0.193 | 0.194 | 0.188 | 0.425 | 0.362 | 0.344 | 0.306 |
| PC-3 [JPC-3] | 0.77 | 0.679 | 0.706 | 0.552 | 0.279 | 0.42 | 0.455 | 0.463 | 0.435 | 0.209 | 0.531 | – | 0.52 | 0.534 | 0.486 | 0.458 | 0.481 | 0.423 |
| PC-14 | 0.749 | 0.672 | 0.588 | 0.0506 | 0.0646 | 0.372 | 0.301 | 0.317 | 0.301 | 0.0926 | 0.614 | 0.401 | 0.366 | 0.212 | 0.79 | 0.384 | 0.609 | 0.519 |
| RERF-LC-KJ | 0.864 | 0.908 | 0.941 | 0.511 | 0.211 | 0.845 | 0.836 | 0.894 | 0.841 | 0.378 | 1.17 | 0.964 | 1.08 | 1.02 | 0.406 | 0.465 | 0.433 | 0.51 |
| SK-LU-1 | 0.394 | 0.545 | 0.474 | 0.202 | 0.185 | 0.931 | 0.944 | 0.729 | 0.127 | 0.191 | 0.452 | 0.346 | 0.419 | 0.343 | 0.612 | 0.473 | 0.569 | 0.365 |
| SK-MES-1 | 0.545 | 0.536 | 0.549 | 0.44 | 0.201 | 0.451 | 0.469 | 0.443 | 0.43 | 0.267 | 0.376 | 0.278 | 0.325 | 0.254 | 0.745 | 0.56 | 0.628 | 0.484 |
| SW 1573 | 0.55 | 0.626 | 0.55 | 0.0697 | 0.0572 | 1.17 | 1.22 | 1.04 | 1.03 | 0.121 | 0.468 | 0.377 | 0.338 | 0.252 | 0.444 | 0.373 | 0.266 | 0.258 |
| UMC-11 | 0.32 | 0.739 | 0.657 | 0.703 | 0.322 | 0.857 | 1.02 | 0.783 | 0.509 | 0.182 | 0.286 | – | 0.317 | 0.31 | 0.36 | 0.31 | 0.294 | 0.229 |
